Results reported in patent publication US10654834B2 (Venenum Biodesign, LLC, priority 2016, dated 2020).

Assays:
Type in all cases: in vivo, mouse
blood glucose = assay: OGTT and insulin measurements after 5 weeks of dosing in DIO mice
Excerpt: In the next series of studies (Examples 93-99), Male DIO mice were received at 12 weeks of age (from Taconic), and were single-housed at the testing facility and acclimated for at least 2 weeks. The mice were provided a high fat diet [Research Diet D12492 (60% Fat kcal)] while in the testing facility. Before the study initiation, the animals were randomized into 5 experimental groups by body weight. The vehicle group contained only 0.5% carboxymethylcellulose (medium viscosity)+0.25% Tween-80. The second group contained 10 mg/kg of the DPP-IV inhibitor Sitagliptin while the third group contained 30 mg/kg Compound 268. The fourth group contained the combination of 10 mg/kg Sitagliptin and 30 mg/kg Compound 268. The fifth group was the positive control for weight loss, Rimonabant. All mice were dosed BID at approximately 6:00 am and again at approximately 4:00 pm. The positive control rimonabant was administered at a dose of 10 mg/kg in the afternoon and the morning dosing was vehicle (no compound). […]
Compounds of the present invention were dosed for multiple weeks and were evaluated for their effectiveness in glycemic control. […] Insulin is also analyzed using Meso Scale Discovery according to the manufacturer's directions (item number K152BZC). Plasma samples ([…]) were loaded in duplicate onto the assay plate and measured against internal standards.

GLP-1 = GLP-1 levels after chronic dosing (5 days) in DIO mice; details: 30 mg/kg + sitagliptin 10 mg/kg p.o., after dose 2 and dose 10 (5 days), versus sitagliptin alone
Method: GLP-1 Levels after Chronic Dosing of Compounds
The chronic dosing of compounds of the present invention was evaluated to determine if they produce sustained GLP-1 levels.
Male DIO mice were received at 12 weeks of age (from Taconic), and were single-housed at the testing facility and acclimated for at least 2 weeks. The mice were provided a high fat diet [Research Diet D12492 (60% Fat kcal)] while in the testing facility. Before the study initiation, the animals were randomized into 18 experimental groups by body weight. The first 10 groups were administered with sitagliptin alone at 10 mg/kg or sitagliptin (10 mg/kg)+Compound 268 at 30 mg/kg by oral gavage and then again 14 hours later (except for one sitagliptin treated and one sitagliptin+Compound 268 treated groups that were euthanized 14° hours after the first dose). The remaining mice were euthanized at 3, 6, or 9 hours after the second dose to collect blood for GLP-1 measurements and bile weights. The remaining 8 groups were administered by oral gavage with sitagliptin alone at 10 mg/kg or sitagliptin (10 mg/kg)+Compound 268 at 30 mg/kg every 10 or 14 hours for 5 days. […] The active form of GLP-1 [GLP-1 (7-36) amide] was analyzed using Meso Scale Discovery System according to the manufacturer's instruction. […]

[1] = Plasma concentration of compound in lean C57BL/6N mice after OGTT; details: 6 h after 30 mg/kg + sitagliptin 3 mg/kg
Method: In these studies, the plasma concentration of the compounds of the present invention was measured in DIO mice as well as lean C57BL/6N mice.
In the second study (data represented in FIG. 11), plasma concentration levels were measured in lean mice after an OGTT experiment described in Example 84. The blood was collected via cardiac puncture 6 hours post compound dosing (and 2 hours after the 2 g/kg glucose bolus). The blood samples (?250 μL) were placed in an EDTA K^2+ tube and plasma was processed for analytical chemistry and analyzed by LCMS/MS method as described in Example 81. FIG. 11 depicts low levels of Compound 268 following OGTT in lean C57BL/6N mice, 6 hours after treatment with 30 mg/kg in combination with 3 mg/kg sitagliptin.

N#Cc1ccc(CCNC(=O)[C@@H]2CCN2c2cc(N3CCC(CCNC(=O)NCCC(=O)O)CC3)nc(C(F)(F)F)n2)cc1 [Compound 268, (S)-3-(3-(2-(1-(6-(2-((4-cyanophenethyl)carbamoyl)azetidin-1-yl)-2-(trifluoromethyl)pyrimidin-4-yl)piperidin-4-yl)ethyl)ureido)propanoic acid]
glucose levels in OGTT after 5 weeks of dosing (blood glucose; 30 mg/kg + sitagliptin 10 mg/kg BID, versus vehicle): reduced the glucose levels relative to vehicle
insulin levels in OGTT after 5 weeks of dosing (blood glucose; BID dosing): increased the sensitivity of the mice to insulin
plasma GLP-1 level after chronic dosing (GLP-1): significantly increased level of GLP-1
plasma concentration of compound [1]: low levels
